Measurements taken from DBAASP.
In brackets after ≈: the same amount, converted by molar mass. Values belong to the compound of their own block, whether it stands above or below them.

Experiments:
Experiment in all cases: ≥ marks a high value that may be exact or a test limit, other limits are often not marked, values filed in µg/mL are converted to µM
Escherichia coli U16318 = system: Escherichia coli U16318
[1] = system: Staphylococcus aureus B38302
[2] = system: Cryptococcus neoformans B3501
[3] = system: Escherichia coli O157:H7 ATCC 43895
[4] = system: Pseudomonas aeruginosa CMCCB 1010
Staphylococcus aureus 10 = system: Staphylococcus aureus 10
[5] = system: Staphylococcus aureus ATCC 25923
Shigella dysenteriae = system: Shigella dysenteriae
[6] = system: Enterobacter cloacae ATCC 13047
[7] = system: Enterococcus faecalis ATCC 29212
[8] = system: Pseudomonas aeruginosa ATCC 27853
Klebsiella pneumoniae = system: Klebsiella pneumoniae
[9] = system: Escherichia coli ATCC 25922
[10] = system: Klebsiella pneumoniae ATCC 700603
Staphylococcus aureus 37 = system: Staphylococcus aureus 37
[11] = system: Candida albicans ATCC 2002
[12] = system: Candida albicans ATCC 90028
[13] = system: Candida parapsilosis ATCC 22019
Pseudomonas aeruginosa = system: Pseudomonas aeruginosa
Escherichia coli 37 = system: Escherichia coli 37
Escherichia coli 117 = system: Escherichia coli 117
[14] = system: Enterobacter cloacae 2524
Escherichia coli 4530 = system: Escherichia coli 4530
[15] = system: Klebsiella pneumoniae 913
[16] = system: Pseudomonas aeruginosa 4677
Escherichia coli 170 = system: Escherichia coli 170
[17] = system: Pseudomonas aeruginosa 3599
[18] = system: Klebsiella pneumoniae ST258
[19] = system: Pseudomonas aeruginosa 5106
Escherichia coli 5580 = system: Escherichia coli 5580
Acinetobacter baumannii = system: Acinetobacter baumannii
Salmonella typhimurium = system: Salmonella typhimurium
[20] = system: Streptococcus pneumoniae ATCC 49619
[21] = system: Bacillus subtilis NBRC 3513
[22] = system: Staphylococcus epidermidis NBRC 12933
[23] = system: Staphylococcus aureus NBRC 12732
[24] = system: Bacillus megaterium ATCC 19213
[25] = system: Candida glabrata IOC 4565
[26] = system: Cryptococcus neoformans IOC 4528
[27] = system: Cryptococcus neoformans ATCC 90112
[28] = system: Aspergillus fumigatus IOC 4526
[29] = system: Candida albicans ATCC 36802
[30] = system: Staphylococcus aureus ATCC 29213
[31] = system: Candida albicans IOC 4558
[32] = system: Candida parapsilosis IOC 4564
Escherichia coli SBS 363 = system: Escherichia coli SBS 363
Candida krusei IOC 4559 = system: Candida krusei IOC 4559
[33] = system: Trichophyton rubrum IOC 4527
[34] = system: Trichosporon sp. IOC 4569
[35] = system: Candida tropicalis IOC 4560
[36] = system: Bacillus subtilis IFO 3134
[37] = system: Pseudomonas aeruginosa IFO 12582
[38] = system: Staphylococcus aureus IFO 12732
[39] = system: Escherichia coli IFO 12734

Compound: CC(C)C[C@H](NC(=O)[C@H](C)N)C(=O)N[C@@H](Cc1c[nH]c2ccccc12)C(=O)N[C@@H](CCCCN)C(=O)N[C@H](C(=O)N[C@@H](CC(C)C)C(=O)N[C@@H](CC(C)C)C(=O)N[C@@H](CCCCN)C(=O)N[C@@H](CCCCN)C(=O)N[C@H](C(N)=O)C(C)C)[C@@H](C)O [ALWKTLLKKV]
MIC (Escherichia coli U16318): ≥ 50 µM
MIC [1]: ≥ 50 µM
MIC [2]: 30 µM (≈ 36 µg/mL)
MIC [3]: ≥ 32 µM

Compound: CC[C@H](C)[C@H](NC(=O)CN)C(=O)N[C@@H](CC(C)C)C(=O)N[C@@H](CCCCN)C(=O)N[C@H](C(=O)N[C@H](C(=O)N[C@@H](CCCCN)C(=O)N[C@@H](CO)C(=O)N[C@H](C(=O)N[C@@H](C)C(=O)N[C@@H](CO)C(=O)N[C@@H](CCCCN)C(=O)N[C@H](C(=O)N[C@@H](C)C(=O)N[C@@H](CC(N)=O)C(=O)N[C@H](C(=O)N[C@H](C(=O)N[C@@H](CCC(N)=O)C(=O)N[C@@H](CCCCN)C(=O)N[C@@H](CC(C)C)C(=O)N[C@@H](CCCCN)C(=O)N[C@@H](CCCN=C(N)N)C(=O)N[C@@H](CCCCN)C(=O)N[C@@H](C)C(=O)N[C@@H](CCCCN)C(=O)N[C@@H](CC(N)=O)C(=O)N[C@@H](C)C(=O)N[C@H](C(=O)O)C(C)C)C(C)C)[C@@H](C)O)C(C)C)[C@@H](C)CC)[C@@H](C)CC)[C@@H](C)O [GILKTIKSIASKVANTVQKLKRKAKNAV]
MIC [14]: 3.1 µM (≈ 9.33 µg/mL)
MIC (Escherichia coli 4530): 3.1 µM (≈ 9.33 µg/mL)
MIC [5]: > 16.6 µM
MIC [15]: 3.1 µM (≈ 9.33 µg/mL)
MIC [16]: 6.2 µM (≈ 18.7 µg/mL)
MIC [8]: 8.31 µM (≈ 25 µg/mL)
MIC (Escherichia coli 170): 0.8 µM (≈ 2.41 µg/mL)
MIC [17]: ≥ 50 µM
MIC [9]: 1.6 µM (≈ 4.81 µg/mL)
MIC [18]: 16.6 µM (≈ 50 µg/mL)
MIC [19]: 12 µM (≈ 36.1 µg/mL)
MIC (Escherichia coli 5580): 1.6 µM (≈ 4.81 µg/mL)
MIC (Acinetobacter baumannii): 3.1 µM (≈ 9.33 µg/mL)
MIC (Salmonella typhimurium): 2.23 µM (≈ 6.7 µg/mL)
MIC [20]: ≥ 50 µM

Compound: CC[C@H](C)[C@H](NC(=O)[C@H](CCCCN)NC(=O)[C@H](CCC(=O)O)NC(=O)[C@H](CCCCN)NC(=O)[C@@H]1CCCN1C(=O)[C@H](Cc1ccccc1)NC(=O)[C@H](CO)NC(=O)[C@H](Cc1cnc[nH]1)NC(=O)CNC(=O)CNC(=O)[C@H](CCCCN)NC(=O)[C@H](CCCCN)NC(=O)[C@H](Cc1cnc[nH]1)NC(=O)[C@H](CO)NC(=O)[C@H](CCC(N)=O)NC(=O)[C@@H](N)CCCCN)C(=O)N[C@@H](CO)C(=O)O [KQSHKKGGHSFPKEKIS]
MIC [25]: ≥ 41.6 µM
MIC [26]: 4.41 µM (≈ 8.49 µg/mL)
MIC [27]: 4.41 µM (≈ 8.49 µg/mL)
MIC [28]: ≥ 52 µM
MIC [29]: ≥ 52 µM
MIC [30]: > 41.6 µM
MIC [31]: ≥ 41.6 µM
MIC [8]: > 41.6 µM
MIC [32]: ≥ 41.6 µM
MIC (Escherichia coli SBS 363): ≥ 41.6 µM
MIC (Candida krusei IOC 4559): 29.4 µM (≈ 56.6 µg/mL)
MIC [33]: ≥ 52 µM
MIC [34]: ≥ 41.6 µM
MIC [35]: ≥ 41.6 µM

Compound: CC[C@H](C)[C@H](NC(=O)[C@H](C)NC(=O)[C@@H]1CCCN1C(=O)[C@@H](NC(=O)[C@@H](NC(=O)[C@H](Cc1cnc[nH]1)NC(=O)[C@H](C)NC(=O)[C@H](C)NC(=O)[C@@H](NC(=O)[C@H](CCCCN)NC(=O)[C@H](C)NC(=O)[C@H](CC(C)C)NC(=O)[C@@H](NC(=O)CNC(=O)[C@H](Cc1ccccc1)NC(=O)[C@@H](N)CC(C)C)C(C)C)C(C)C)C(C)C)C(C)C)C(=O)N[C@@H](C)C(=O)N[C@@H](CCC(=O)O)C(=O)N[C@@H](Cc1cnc[nH]1)C(=O)N[C@@H](Cc1ccccc1)C(N)=O [LFGVLAKVAAHVVPAIAEHF]
MIC [36]: ≥ 64 µM
MIC [37]: ≥ 64 µM
MIC [38]: ≥ 64 µM
MIC [39]: ≥ 64 µM

The remaining lines, values ahead:

MIC [4]: 17.3 µM (≈ 20 µg/mL)
MIC (Staphylococcus aureus 10): 8.64 µM (≈ 10 µg/mL)
MIC [5]: 2.16 µM (≈ 2.5 µg/mL)
MIC (Shigella dysenteriae): 4.32 µM (≈ 5 µg/mL)
MIC [6]: 2.16 µM (≈ 2.5 µg/mL)
MIC [7]: 17.3 µM (≈ 20 µg/mL)
MIC [8]: 34.6 µM (≈ 40 µg/mL)
MIC (Klebsiella pneumoniae): 69.1 µM (≈ 80 µg/mL)
MIC [9]: 4.32 µM (≈ 5 µg/mL)
MIC [10]: 8.64 µM (≈ 10 µg/mL)
MIC (Staphylococcus aureus 37): 4.32 µM (≈ 5 µg/mL)
MIC [11]: 8.64 µM (≈ 10 µg/mL)
MIC [12]: 17.3 µM (≈ 20 µg/mL)
MIC [13]: 4.32 µM (≈ 5 µg/mL)
MIC (Pseudomonas aeruginosa): 8.64 µM (≈ 10 µg/mL)
MIC (Escherichia coli 37): 17.3 µM (≈ 20 µg/mL)
MIC (Escherichia coli 117): 4.32 µM (≈ 5 µg/mL)
Compound: CC[C@H](C)[C@H](NC(=O)[C@@H](NC(=O)[C@@H]1CCCN1C(=O)[C@H](CC(C)C)NC(=O)[C@@H](N)Cc1ccccc1)[C@@H](C)CC)C(=O)NCC(=O)N[C@@H](CCCCN)C(=O)N[C@@H](CC(C)C)C(=O)N[C@@H](CC(C)C)C(=O)N[C@@H](CO)C(=O)NCC(=O)O [FLPIIGKLLSG]

MIC [21]: ≥ 128 µM
MIC [22]: ≥ 128 µM
MIC [23]: ≥ 128 µM
MIC [24]: ≥ 128 µM
Compound: CC(C)C[C@H](NC(=O)[C@@H](N)CCCCN)C(=O)NCC(=O)N[C@@H](Cc1cnc[nH]1)C(=O)N[C@@H](Cc1cnc[nH]1)C(=O)NCC(=O)N[C@@H](CCCN=C(N)N)C(=O)N[C@@H](C)C(=O)N1CCC[C@H]1C(=O)N1CCC[C@H]1C(=O)O [KLGHHGRAPP]
